Calls of active or inactive are those of the source.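 How the source made its calls: active means compounds cutting recovered intracellular Salmonella colonies below 0.7 of the DMSO level; inactive means the rest.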
tested on: HeLa infected S. Typhimurium SL1344, CFU, 6 h; assay: intracellular Salmonella Typhimurium clearance, cell-based, colony forming units, HeLa, SL1344 (AID 1963953); conditions: at 20 µM; hits give low values

Structure (SMILES)	normalized CFU (DMSO = 1)
CS(C)=O	1 (inactive)
CCC(C)(C)C(=O)C(=O)N1CCCC[C@H]1C(=O)N[C@H](CCc1ccc(OC)cc1)C(=O)N1[C@@H]2CC[C@H]1CC(Nc1nc(NCCc3ccccc3)nc(N3CCn4ncnc4C3)n1)C2 (stereo not given in full)	0.47
CC(=O)N1[C@@H]2CC[C@H]1CC(Nc1nc(NCCc3sc(N)nc3C)nc(N3CCn4ncnc4C3)n1)C2 (stereo not given in full)	0.97 (inactive)
CCC(C)(C)C(=O)C(=O)N1CCCC[C@H]1C(=O)N[C@H](CCc1ccc(OC)cc1)C(=O)N1[C@@H]2CC[C@H]1CC(Nc1nc(NCCc3sc(N)nc3C)nc(N3CCn4ncnc4C3)n1)C2 (stereo not given in full)	0.31
CCC(C)(C)C(=O)C(=O)N1CCCC[C@H]1C(=O)N[C@H](CCc1ccc(OC)cc1)C(=O)N1[C@@H]2CC[C@H]1CC(NC(C)=O)C2 (stereo not given in full)	0.77 (inactive)
